Results reported in PMC10253812, “Novel 2-alkythio-4-chloro-N-[imino(heteroaryl)methyl]benzenesulfonamide Derivatives: Synthesis, Molecular Structure, Anticancer Activity and Metabolic Stability” (International Journal of Molecular Sciences, 2023).

How the values were obtained:
[1] = test system: HeLa, HCT-116 and MCF-7 cell lines; assay: MTT screening, statements pooled over the three cancer cell lines; assay type: cell-based; details: Homo sapiens, 72 h, HCT-116, MCF-7, read-out: IC50 (low potency, not shown in Table 1)
Procedure: (§1) Compounds 8–24 were evaluated in vitro for their cytotoxic effect against three human cancer cell lines, i.e., HeLa (cervical cancer), HCT-116 (colon cancer) and MCF-7 (breast cancer), and the non-tumor cell line HaCaT using the MTT assay after 72 h of incubation. The results of tests are presented in Table 1 as IC50, indicating the concentration required for 50% inhibition of cell viability. Compounds 8–10 and 14–18 are not presented in the Table 1 because of their low potency (IC50 > 100 µM).
(§2) All chemicals, if not stated otherwise, were obtained from Sigma-Aldrich (St. Louis, MO, USA). The MCF-7, HeLa and HaCaT cell lines were purchased from Cell Lines Services (Eppelheim, Germany), and the HCT-116 cell line was purchased from ATCC (ATCC-No: CCL-247). The cells were cultured in Dulbecco’s modified Eagle’s medium (DMEM) supplemented with 10% fetal bovine serum, 2 mM glutamine, 100 units/mL of penicillin and 100 μg/mL of streptomycin. The cultures were maintained in a humidified atmosphere with 5% CO2 at 37 °C, in an incubator (Heraeus, HeraCell).
(§3) Cytotoxicity assay: Cell viability was determined using the MTT (3-(4,5-dimethylthiazol-2-yl)-2,5diphenyltetrazoliumbromide) assay. The cells were seeded in 96-well plates at a density of 5 × 10^3 cells/well and treated for 24, 48 and 72 h with the examined compounds in the concentration range 1–100 μM. Following treatment, MTT (0.5 mg/mL) was added to the medium, and the cells were further incubated for 2 h at 37 °C. the cells were lysed with DMSO, and the absorbance of the formazan solution was measured at 550 nm with a plate reader (Victor, 1420 multilabel counter). The experiment was performed in triplicate. The values are expressed as the mean ± SD of at least three independent experiments.

[2] = test system: MCF-7 (breast cancer) cell line; assay: MTT cell viability assay, MCF-7; assay type: cell-based, human; details: MTT assay, 72 h of incubation
Procedure: as §1, §2, §3

[3] = test system: HCT-116 (colon cancer) cell line; assay: MTT cell viability assay, HCT-116; assay type: cell-based; details: Homo sapiens, 72 h of incubation
Procedure: as §1, §2, §3

[4] = test system: HeLa (cervical cancer) cell line; assay: MTT cell viability assay, HeLa; assay type: cell-based, human; details: Homo sapiens, HeLa; MTT assay, 72 h of incubation; read-out: IC50 HeLa
Procedure: as §1
The cytotoxic activity of 11–13 was determined in a time-dependent manner with the MTT assay (Figure 3).
HeLa cells were treated with 11, 12 and 13 in the concentration range of 0–20 µM. […] After 48 h, the IC50 values for compounds 11, 12 and 13 were 6, 7 and 6 µM, respectively.
as §2, §3

[5] = test system: HaCaT (immortalized human keratinocytes); assay: MTT cell viability assay, non-tumor HaCaT; assay type: cell-based; details: 72 h of incubation, non-tumor cell line
Procedure: as §1
We also performed an assay on the non-tumor cell line HaCaT (immortalized human keratinocytes) to assess if the effect of 11–13 was selective toward HeLa cells or resulted from a more general toxic activity.
as §2, §3

SMILES	IC50 [1] [µM]	IC50 ([2]; Homo sapiens, MCF7) [µM]	IC50 [3] [µM]	IC50 [4] [µM]	further results
Cc1cc(S(=O)(=O)NC(=N)n2ncn(C)c2=S)c(SCc2ccccc2)cc1Cl [Compound 15, 2-Benzylthio-4-chloro-5-methyl-N-[imino(4-methyl-5-thioxo-4,5-dihydro-1H-1,2,4-triazol-1-yl)methyl]benzenesulfonamide]	> 100				
Cc1cc(S(=O)(=O)NC(=N)n2ccn(C)c2=S)c(SCc2cccc(C(F)(F)F)c2)cc1Cl [Compound 9, 4-Chloro-N-[imino(3-methyl-2-thioxo-2,3-dihydro-1H-imidazol-1-yl)methyl]-5-methyl-2-(3-trifluoromethylbenzylthio)benzenesulfonamide]	> 100				
Cc1cc(S(=O)(=O)NC(=N)n2ncn(C)c2=S)c(SCc2ccc(C(F)(F)F)cc2)cc1Cl [Compound 17, 4-Chloro-N-[imino(4-methyl-5-thioxo-4,5-dihydro-1H-1,2,4-triazol-1-yl)methyl]-5-methyl-2-(4-trifluoromethylbenzylthio)benzenesulfonamide]	> 100				
Cc1cc(S(=O)(=O)NC(=N)n2ccn(C)c2=S)c(SCc2ccccc2)cc1Cl [Compound 8, 2-Benzylthio-4-chloro-N-[imino(3-methyl-2-thioxo-2,3-dihydro-1H-imidazol-1-yl)methyl]-5-methylbenzenesulfonamide]	> 100				
Cc1cc(S(=O)(=O)NC(=N)n2ccn(C)c2=S)c(SCc2ccc(C(F)(F)F)cc2)cc1Cl [Compound 10, 4-Chloro-N-[imino(3-methyl-2-thioxo-2,3-dihydro-1H-imidazol-1-yl)methyl]-5-methyl-2-(4-trifluoromethylbenzylthio)benzenesulfonamide]	> 100				
N.N.[Cl][Pt][Cl] [Cisplatin, reference compound]					IC50 [2]: 3 ± 0.1 µM; IC50 [5]: 7.7 ± 0.2 µM
Cc1cc(S(=O)(=O)NC(=N)n2c(=S)[nH]c3ccccc32)c(SCc2cc3c(cc2Cl)OCO3)cc1Cl [Compound 23, 4-Chloro-2-(6-chlorobenzo [1,3]dioxol-5-ylmethylthio)-N-[imino-(2-thioxo-2,3-dihydro-1H-benzo[d]imidazol-1-yl)methyl]-5-methylbenzenesulfonamide]		50 ± 2	34 ± 0.3	57 ± 1	
Cc1cc(S(=O)(=O)NC(=N)n2ncn(C)c2=S)c(SCc2ccc(Cl)cc2)cc1Cl [Compound 18, 4-Chloro-2-(4-chlorobenzylthio)-N-[imino(4-methyl-5-thioxo-4,5-dihydro-1H-1,2,4-triazol-1-yl)methyl]5-methylbenzenesulfonamide]	> 100				
CCOC(=O)CSc1cc(Cl)c(C)cc1S(=O)(=O)NC(=N)n1ccn(C)c1=S [Compound 14, 4-Chloro-2-ethoxycarbonylmethylthio-N-[imino(3-methyl-2-thioxo-2,3-dihydro-1H-imidazol-1-yl)methyl]-5-methylbenzenesulfonamide]	> 100				

Second part, led by results:

IC50 [1] [µM]	IC50 ([2]; Homo sapiens, MCF7) [µM]	IC50 [3] [µM]	IC50 [4] [µM]	SMILES	further results
	49 ± 1	17 ± 0.5	43 ± 1	Cc1cc(S(=O)(=O)NC(=N)n2c(=S)[nH]c3ccccc32)c(SCc2cccc(C(F)(F)F)c2)cc1Cl [Compound 20, 4-Chloro-N-[imino-(2-thioxo-2,3-dihydro-1H-benzo[d]imidazol-1-yl)methyl]-5-methyl-2-(3-trifluoromethylbenzylthio)benzenesulfonamide]	
	73 ± 2	27 ± 0.5	49 ± 2	Cc1cc(S(=O)(=O)NC(=N)n2c(=S)[nH]c3ccccc32)c(SCc2ccc(Cl)cc2)cc1Cl [Compound 22, 4-Chloro-2-(4-chlorobenzylthio)-N-[imino-(2-thioxo-2,3-dihydro-1H-benzo[d]imidazol-1-yl)methyl]-5-methylbenzenesulfonamide]	
	82 ± 4	36 ± 1	60 ± 3	Cc1cc(S(=O)(=O)NC(=N)n2c(=S)[nH]c3ccccc32)c(SCc2ccccc2)cc1Cl [Compound 19, 2-Benzylthio-4-chloro-5-methyl-N-[imino-(2-thioxo-2,3-dihydro-1H-benzo[d]imidazol-1-yl)methyl]benzenesulfonamide]	
	62 ± 3	23 ± 0.2	52 ± 1	Cc1cc(S(=O)(=O)NC(=N)n2c(=S)[nH]c3ccccc32)c(SCc2ccc(C(F)(F)F)cc2)cc1Cl [Compound 21, 4-Chloro-N-[imino-(2-thioxo-2,3-dihydro-1H-benzo[d]imidazol-1-yl)methyl]-5-methyl-2-(4-trifluoromethylbenzylthio)benzenesulfonamide]	
	56 ± 2	21 ± 0.6	33 ± 1	Cc1cc(S(=O)(=O)NC(=N)n2c(=S)[nH]c3ccccc32)c(SCc2cccc3ccccc23)cc1Cl [Compound 24, 4-Chloro-N-[imino-(2-thioxo-2,3-dihydro-1H-benzo[d]imidazol-1-yl)methyl]-5-methyl-2-(naphthalen-1-ylmethylthio)benzenesulfonamide]	
